Measurements from patent publication US20060223812A1, “Treating neurodegenerative conditions” (MAX-PLANCK-GESELLSCHAFT ZUR FORDERUNGDER WISSENSCHAFTEN, …, priority 2004, published 2006).
Where “and” joins values, the source holds several entries; their conditions need not be identical. Equal entries are not always repeated. Where two headings read alike, the source gives them in different places.

Assays:
[1] = target: T1, four repeat construct K18 (Homo sapiens, UniProt P10636); assay: Thioflavine S assay, inhibition of PHF formation, K18; assay type: biochemical
T1 construct: made in house; host or cells: E. coli
Experimental: (§1) Assembly of synthetic PHFs of tau protein (K19, 10 μM) was performed at 37° C. in the presence of polyanions (heparin; 5 μM) in 50 mM NH4Ac, pH 6.8. Assembly was followed either qualitatively by electron microscopy or quantitatively by fluorescence assay using thioflavine S. PHF-formation of tau isoforms htau23 and htau24 was carried out in PBS-buffer pH 7.4, 50 μM protein, and 12.5 μM heparin. The samples were incubated at 50° C. for 10 days. In the case of htau24 and K18, DTT was added at a final concentration of 1 mM each day in order to avoid intra-molecular disulfide crosslinking (Barghorn et al., 2000).
(§2) PHF formation was monitored by a thioflavine S fluorescence assay (Friedhoff et al., 1998a) adapted to a 384 well format. 60 μM of each substance was tested for its inhibitory effect on PHF formation. Using an automated pipetting system (Cybi-Well, CyBio, Jena, Germany) 50 mM NH4AC, 10 μM protein (K19), 60 μM compound and 5 μM heparin were mixed in 50 μl volume in a 384 well plate (black microtiter 384 plate round well, ThermoLabsystems, Dreiich, Germany) and incubated overnight at 37° C. As a control the protein was replaced with H2O to measure the possible fluorescence of the compounds. As a second control the reaction mixture without compound was treated in the same way.
(§3) After incubation with the compounds thioflavine S was added to the buffer to a final concentration of 20 μM and the signal was measured at excitation at 440 nm and emission at 521 nm in a spectrofluorimeter (Ascent; Labsystems, Frankfurt).
The four repeat construct K18 was tested under the same conditions (FIG. 2B). […] However, the decay of the curves of K18 is more gradual than those of K19, extending over 3-4 orders of magnitude of compound concentration (compare FIG. 2A).

PHFs from K19 = target: T2, PHFs from K19 (Homo sapiens, UniProt P10636); assay: Thioflavine S assay, depolymerisation of pre-formed PHFs, K19; assay type: biochemical
T2 construct: construct K19 containing three repeats; made in house; host or cells: E. coli
Experimental: Depolymerisation of PHFs was monitored by the thioflavine S fluorescence. 60 μM of each compound was tested for its ability to depolymerise pre-formed PHFs. 50 mM NH4Ac, 10 μM PHF (K19), 60 μM compound and 5 μM heparin were mixed in 50 μl volume in a 384 well plate (black microtiter 384 plate round well, ThermoLabsystems, Dreiich, Germany) and incubated overnight at 37° C. As a control the reaction mixture without compound was treated in the same way.
After incubation thioflavine S was added to the buffer to a final concentration of 20 μM and the signal was measured at excitation at 440 nm and emission at 521 nm in a spectrofluorimeter (Ascent; Labsystems, Frankfurt).
(§4) The ThS assay was used to analyse the ability of the five compounds (see Example 4) to depolymerise pre-formed PHFs made from the repeat domain constructs K19 and K18 as well as from isoforms htau23 and htau24, containing 3 or 4 repeats, respectively.
The depolymerisation of K19 filaments (FIG. 4A) followed a similar concentration dependence as the inhibition experiment, with consistently similar or slightly higher DC50 values than the corresponding IC50 concentrations (Table 2). The ratios of IC50/DC50 range from 0.2-1.2. […] Here, too, the concentration dependence for K19 was steeper than for K18 (compare FIGS. 4A, B), similar to that of assembly inhibition (FIGS. 2A, B).
(§5) Tau constructs and isoforms K19, K18, hTau23, hTau24 (10 μM) were first aggregated into PHFs for 48 hours in the presence of 2.5 μM heparin (except K18/ΔK280) and the polymers separated from the soluble tau by centrifugation of 1 h at 100,000 g, redissolved and then exposed to the inhibitors overnight at 37° C. at the indicated concentrations (range 0.001-200 μM). The compounds are capable of disassembling PHFs with varying efficiencies (see Table 2).

K18/ΔK280 = K18/ΔK280 (Homo sapiens, UniProt P10636, DEL598-598); assay: Thioflavine S assay, inhibition of PHF formation, K18/ΔK280 without heparin; assay type: biochemical
Excerpt: All the polymerisation reactions described so far used heparin as a cofactor for inducing PHF assembly because otherwise the process would be impracticably slow (Goedert et al., 1996; Perez et al., 1996). In order to rule out a potential influence of heparin on the efficiency of the compounds the 4-repeat construct K18/ΔK280 which carries one of the mutations observed in frontotemporal dementia (van Swieten et al., 1999) and is capable of polymerising into PHFs without a polyanionic cofactor (von Bergen, 2001) (FIG. 2E) was used. […] The differences in inhibition effects for K18 (with heparin) and K18/ΔK280 (without heparin) could be caused either by a difference in conformation and/or protein-protein interactions, or perhaps by an interaction between the compound and the cofactor heparin.

tau construct K19 = target: T3, tau construct K19 (Homo sapiens, UniProt P10636); assay: Thioflavine S assay, inhibition of PHF formation, K19; assay type: biochemical; details: ThS fluorescence, 10 μM K19, heparin; read-out: Inhibition of tau aggregation IC50, K19
T3 construct: construct K19 containing three repeats; made in house; host or cells: E. coli
Experimental: as §1, §2, §3
Inhibitory effects begun to appear at concentrations around 0.1 μM (ratio of protein to compound=100), and reached nearly complete inhibition at 100 μM compound concentration (ratio protein/compound=0.1). Overall, the curves of FIG. 2A decay fairly steeply over a compound concentration range of 2-3 orders of magnitude.
(A) extent of aggregation of tau construct K19 (10 μM) plotted vs. inhibitor concentration (range 1 fM-60 μM). The extent of aggregation was measured by the thioflavin S fluorescence assay and the degree of inhibition was plotted as percentage of control. All measurements were performed in triplicates.

PHFs from K18/ΔK280 = assay: Thioflavine S assay, depolymerisation of pre-formed PHFs, K18/ΔK280 without heparin; assay type: biochemical, human; details: ThS fluorescence, PHFs made without heparin
Experimental: as §4
The higher DC50 values for K18/ΔK280 point to the higher stability of PHFs formed by this mutant.
as §5

htau24 = target: T4, htau24 (Homo sapiens, UniProt P10636); assay: Thioflavine S assay, inhibition of PHF formation, htau24; assay type: biochemical; details: for IC50: ThS fluorescence, read-out: Inhibition of tau aggregation IC50, hTau24; for inhibition at 60 µM: read-out: inhibition of PHF formation, htau24; for effect on PHF formation, htau24: compared to htau23
T4 construct: made in house; host or cells: E. coli
Experimental: as §1

[2] = ThS fluorescence, K18, heparin, read-out: Inhibition of tau aggregation IC50, K18
[3] = ThS fluorescence, overnight 37° C., read-out: Depolymerisation of PHFs DC50, K19
[4] = ThS fluorescence, read-out: Inhibition of tau aggregation IC50, K18/ΔK280

T4 sequence (P10636 1-383 isoform P10636-6): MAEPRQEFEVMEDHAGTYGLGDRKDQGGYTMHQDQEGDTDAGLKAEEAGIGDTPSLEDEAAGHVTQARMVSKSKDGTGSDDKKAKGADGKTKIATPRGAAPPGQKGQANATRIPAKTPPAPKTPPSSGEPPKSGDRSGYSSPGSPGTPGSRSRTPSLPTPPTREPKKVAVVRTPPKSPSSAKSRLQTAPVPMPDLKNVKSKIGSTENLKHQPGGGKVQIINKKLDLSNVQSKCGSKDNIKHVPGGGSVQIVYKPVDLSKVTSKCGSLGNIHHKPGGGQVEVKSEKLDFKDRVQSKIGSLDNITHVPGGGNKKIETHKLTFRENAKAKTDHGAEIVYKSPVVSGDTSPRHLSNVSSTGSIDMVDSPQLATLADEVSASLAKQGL
K18/ΔK280, sequence (P10636 with tags, fused parts or gaps DEL598-598): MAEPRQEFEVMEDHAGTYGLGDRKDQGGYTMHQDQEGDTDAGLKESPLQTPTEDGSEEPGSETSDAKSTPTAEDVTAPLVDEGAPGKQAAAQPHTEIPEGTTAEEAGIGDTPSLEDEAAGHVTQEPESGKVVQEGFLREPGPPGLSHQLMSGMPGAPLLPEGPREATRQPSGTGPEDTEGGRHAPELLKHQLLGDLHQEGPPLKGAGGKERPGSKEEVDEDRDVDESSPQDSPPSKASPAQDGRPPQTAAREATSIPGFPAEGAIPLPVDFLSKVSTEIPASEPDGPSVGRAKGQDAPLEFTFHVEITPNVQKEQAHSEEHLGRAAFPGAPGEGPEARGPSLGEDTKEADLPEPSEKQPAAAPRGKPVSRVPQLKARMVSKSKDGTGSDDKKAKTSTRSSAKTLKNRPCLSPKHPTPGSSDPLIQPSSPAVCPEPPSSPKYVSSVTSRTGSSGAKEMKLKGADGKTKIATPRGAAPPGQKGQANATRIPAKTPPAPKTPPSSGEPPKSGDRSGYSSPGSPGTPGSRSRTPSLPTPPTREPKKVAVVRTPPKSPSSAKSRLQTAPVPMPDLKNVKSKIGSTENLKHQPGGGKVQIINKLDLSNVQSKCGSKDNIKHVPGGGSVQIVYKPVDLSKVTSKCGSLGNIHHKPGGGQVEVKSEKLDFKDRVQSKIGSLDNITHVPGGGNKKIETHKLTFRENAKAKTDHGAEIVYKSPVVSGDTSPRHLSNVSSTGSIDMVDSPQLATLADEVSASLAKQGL
T3 sequence (P10636 with tags, fused parts or gaps isoform P10636-2 limits assumed): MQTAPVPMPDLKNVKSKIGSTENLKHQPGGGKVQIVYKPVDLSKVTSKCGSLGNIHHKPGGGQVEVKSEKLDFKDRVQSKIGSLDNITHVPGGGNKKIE
T2 sequence (P10636 with tags, fused parts or gaps isoform P10636-2 limits assumed): as above
T1 sequence (P10636 561-685 limits assumed): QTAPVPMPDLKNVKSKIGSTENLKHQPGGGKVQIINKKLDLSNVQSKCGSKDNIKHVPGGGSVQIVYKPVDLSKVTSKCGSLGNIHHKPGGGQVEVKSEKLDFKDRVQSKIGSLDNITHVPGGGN

| SMILES | IC50 [1] [µM] | DC50 (PHFs from K19; read-out: Depolymerisation of PHFs DC50, K19, ThS fluorescence, overnight 37° C.) [µM] | IC50 (K18/ΔK280; Inhibition of tau aggregation IC50, K18/ΔK280, ThS fluorescence) [µM] | IC50 (tau construct K19) [µM] | DC50 (PHFs from K18/ΔK280) [µM] | IC50 (htau24) [µM] | IC50 [1, 2] [µM] | DC50 (PHFs from K19; [3]) [µM] | IC50 (K18/ΔK280; [4]) | inhibition at 60 µM (htau24) [%] | inhibition at 60 µM (htau24; 60 μM compound) [%] | inhibition of filament formation, K18/ΔK280 (K18/ΔK280) | Depolymerisation of PHFs DC50, K18/ΔK280 (PHFs from K18/ΔK280) | effect on PHF formation, htau24 (htau24) |
| --- | --- | --- | --- | --- | --- | --- | --- | --- | --- | --- | --- | --- | --- | --- |
| COc1cccc2c1C(=O)c1c(O)c3c(c(O)c1C2=O)CC(O)(C(=O)CO)CC3OC1CC(N)C(O)C(C)O1 (stereo not shown) [Adriamycin, 10-(4-Amino-5-hydroxy-6-methyl-tetrahydro-pyran-2-yloxy)-6,8,11-trihydroxy-8-(2-hydroxyethanoyl)-1-methoxy-7,8,9,10-tetrahydro-naphthacene-5,12-dione, reference compound] | 0.1 | 27 | 3.9 | 17.6 | 22 | 2.7 | – | – | – | – | – | – | – | – |
| COc1cccc2c1C(=O)c1c(O)c3c(c(O)c1C2=O)CC(O)(C(C)=O)CC3OC1CC(N)C(O)C(C)O1 (stereo not shown) [Daunorubicin, 8-Acetyl-10-(4-amino-5-hydroxy-6-methyl-tetrahydro-pyran-2-yloxy)-6,8,11-trihydroxy-1-methoxy-7,8,9,10-tetrahydro-naphthacene-5,12-dione, reference compound] | – | – | – | 1 | 7.7 | 3.4 | 0.3 | 3.1 | 48 µM and 48.1 µM | 70 to 90 | – | – | – | – |
| Cc1cc(O)c2c(c1)C(=O)c1cc(O)cc(O)c1C2=O [Emodin, 1,3,8-Trihydroxy-6-methyl-anthraquinone] | – | – | – | 2.4 | 2.7 | 1.8 | 0.3 | 2 | 1.9 µM | – | 70 to 90 | – | – | – |
| O=C(c1ccccc1)c1ccc(O)c(O)c1O [PHF005, 1-Phenyl-1-(2,3,4-trihydroxy-phenyl)-methanone] | – | – | – | 6 | > 100 | > 100 | 2.7 | 9.4 | > 60 µM | – | – | failed nearly completely | not accurately detectable | only a small effect |
| O=C1c2ccc(O)c(O)c2C(=O)c2c(O)ccc(O)c21 [PHF016, 1,2,5,8-Tetrahydroxy-anthraquinone] | – | – | – | 6.8 | > 60 | > 60 | 0.6 | 7.8 | 1.3 µM | – | – | – | not accurately detectable | only a small effect |
